As a reminder, the IC50 is the concentration needed to halve the response being measured. As usually defined, the melting point is the temperature, or range, at which the solid turns liquid.

In series [1] the test system is HaCaT cells. Description: HaCaT keratinocyte proliferation assay (cell counting). It counts as cell-based, human. To be noted: for IC50: Homo sapiens; for inhibition of HaCaT cell proliferation (in words): HaCaT cells. On the procedure:
Anthralin, an antipsoriatic drug, was used as a positive control. Antiproliferative activity was measured directly by counting the dispersed cells under a phase-contrast microscope.
HaCaT keratinocyte proliferation assay and LDH release were described previously in full detail (Muller et al. J. Med. Chem. 39: 3132-3138, 1996; Müller et al. J. Med. Chem. 37: 1660-1669, 1994). For the cancer cell line studies, exponentially growing cells were seeded at 1,000 cells per well in six-well plates and allowed to attach for 24 h. Compounds of the invention or β-lapachone, solubflized in DMSO, were added to the wells in micromolar concentrations. Control wells were treated with equivalent volumes of DMSO. After 4 h the supernatant was removed and fresh medium was added. Cultures were observed daily for 10-15 days and then were fixed and stained. Colonies of greater than 30 cells were scored as survivors. […]

Series [2] deals with HaCaT cells. It counts as cell-based, human. To be noted: for LDH (mU): human, 2 μM. The procedure: (§1) HaCaT keratinocyte proliferation assay and LDH release were described previously in full detail (Muller et al. J. Med. Chem. 39: 3132-3138, 1996; Müller et al. J. Med. Chem. 37: 1660-1669, 1994). For the cancer cell line studies, exponentially growing cells were seeded at 1,000 cells per well in six-well plates and allowed to attach for 24 h. Compounds of the invention or β-lapachone, solubflized in DMSO, were added to the wells in micromolar concentrations. Control wells were treated with equivalent volumes of DMSO. After 4 h the supernatant was removed and fresh medium was added. Cultures were observed daily for 10-15 days and then were fixed and stained. Colonies of greater than 30 cells were scored as survivors.
The cytotoxicity of naphthoquinones has been thought to result, at least in part, from reactive oxygen species, generated during redox cycling between the […] and reduction products (Munday, R., Free Radic. Biol. Med., 22, 689-695, 1997), which cause peroxidative damage to membrane lipids. To assess the correlation of keratinocyte growth inhibition with membrane damage, the release of lactate dehydrogenase from the treated cells was also quantitated.

Series [3] relates to colon cancer cell line DLD1. The series can be described thus: Cancer cell line colony survival assay, DLD1. It counts as cell-based, human. To be noted: Homo sapiens. The procedure: as §1
The test system of series [4] is colon cancer cell line SW480. The series can be described thus: Cancer cell line colony survival assay, SW480. It counts as cell-based, human. The following applies: Homo sapiens. On the procedure: as §1
For series [5], the system named is breast cancer cell line MCF7. Description: Cancer cell line colony survival assay, MCF7. It counts as cell-based, human. The following applies: Homo sapiens. The procedure: as §1
The subject of series [6] is human keratinocyte cell line HaCaT. The following applies: Müller et al., J. Nat. Prod. 62 (1999); cited from earlier work.
A further series relates to human cancer cell lines. To be noted: wide spectrum of human cancer cell lines; read-out: antineoplastic activity against human cancer cell lines (IC50); cited from earlier work.
For series [7], the system named is normal fresh or proliferating human PBMC. To be noted: cited from earlier work.
Series [8] has as its system cancer cell lines and normal cells. The following applies: Li et al., PNAS 2003; cited from earlier work.
The mark [9] stands for this setting: antiproliferative activity against HaCaT cells, N = 3, read-out: AA in HaCaT Cells IC50.
Where [10] appears, read: DLD-1, colon cancer cell line DLD1, 4 h exposure, colonies after 10-15 days, read-out: AA in Cancer Cell Lines IC50 (μM) DLD1.
[11] abbreviates: colon cancer cell line SW480, 4 h exposure, colonies after 10-15 days, read-out: AA in Cancer Cell Lines IC50 (μM) SW480.
[12] abbreviates: breast cancer cell line MCF7, 4 h exposure, colonies after 10-15 days, read-out: AA in Cancer Cell Lines IC50 (μM) MCF7.
[13] abbreviates: HaCaT, read-out: AA in HaCaT Cells IC50 (μM).

The structures appear in SMILES notation. Read-outs that look alike come from different tables or passages of the source.

With `O=C(c1ccccc1)c1cc2c(o1)C(=O)c1ccccc1C2=O` [Compound 74b, 2-Benzoyl-naphtho[2,3-b]furan-4,9-dione], the melting point fell in the range of 198 to 200 °C. For the same compound, the IC50 with HaCaT cells [1] (setting [9]) was determined as 0.7 µM. Besides, in the series with HaCaT cells [2], the “LDH (mU)” value came out at 222 mU.
The compound `O=C(c1ccccc1)c1cc2c(s1)C(=O)c1ccccc1C2=O` [Compound 64b, 2-Benzoyl-naphtho[2,3-b]thiophene-4,9-dione] had a melting point of 158 to 159 °C. The “inhibition of HaCaT cell proliferation (in words)” value with HaCaT cells [1] was “inhibited cell proliferation at concentrations comparable to β-lapachone and the furan analogs”. For the same compound, the IC50 in the series with HaCaT cells [1] (setting [9]) worked out at 1.7 µM. Also, the “LDH release compared to vehicle control (in words)” value in the series with HaCaT cells [2] is reported as “without significant elevation of LDH release over the vehicle control”. In addition, the IC50 in series [3] (setting [10]) worked out at 1.3 µM. For the same compound, the IC50 in series [4] (setting [11]) stood at 4 µM. In series [5] (setting [12]), the IC50 is ≤ 1 µM.
Take `CC(C)=CCC1=C(O)C(=O)c2ccccc2C1=O` [lapachol]: the “inhibition of keratinocyte growth in HaCaT model (in words)” value (from here on “inhibition of keratinocyte growth”) in [6] was “relatively inactive”.
`O=C(c1ccc([N+](=O)[O-])cc1)c1cc2c(s1)C(=O)c1ccccc1C2=O` [Compound 66b, 2-(4-Nitrobenzoyl)-naphtho[2,3-b]thiophene-4,9-dione] came in with a melting point of 270 °C. The IC50 with HaCaT cells [1] (setting [9]) worked out at 4 µM. Further, in [3] (setting [10]), the concentration for half-maximal inhibition (IC50) came to 25 µM.
`COc1ccc(C(=O)c2cc3c(s2)C(=O)c2ccccc2C3=O)cc1OC` [Compound 65b, 2-(3,4-Dimethoxybenzoyl)-naphtho[2,3-b]thiophene-4,9-dione] had a melting point of 212 to 218 °C. The “inhibition of HaCaT cell proliferation (in words)” value with HaCaT cells [1] was “inhibited cell proliferation at concentrations comparable to β-lapachone and the furan analogs”. In the series with HaCaT cells [1] (setting [9]), the IC50 is 0.8 µM. Besides, in the series on HaCaT cells [2], the “LDH release compared to vehicle control (in words)” value is given as “without significant elevation of LDH release over the vehicle control” and the “LDH (mU)” value is recorded as 137 mU. The IC50 in [3] (setting [10]) was 2.6 µM. The IC50 in [4] (setting [11]) was found to be 10 µM. The IC50 in [5] (setting [12]) is ≤ 1 µM.
`O=C(c1ccccc1)c1cc2cc3ccccc3cc2s1` [Compound 64a, Naphtho[2,3-b]thiophen-2-yl-phenylmethanone]: the melting point lay in the range of 164 to 165 °C. Besides, in the series on HaCaT cells [1] (setting [9]), the IC50 worked out at 0.3 µM. In addition, in the series on HaCaT cells [2], the “LDH (mU)” value was determined as 122 mU. The IC50 in series [3] (setting [10]) came to 1.5 µM. The IC50 in [4] (setting [11]) is ≤ 1 µM. Moreover, in series [5] (setting [12]), the IC50 is ≤ 1 µM.
As to `O=C(c1ccc([N+](=O)[O-])cc1)c1cc2cc3ccccc3cc2s1` [Compound 66a, Naphtho[2,3-b]thiophen-2-yl-(4-nitrophenyl)methanone], the melting point lay within 251 to 252 °C. In the series on HaCaT cells [1] (setting [9]), the IC50 is > 5 µM. For the same compound, the half-inhibitory concentration (IC50) in series [3] (setting [10]) was > 32 µM. Besides, the IC50 in series [4] (setting [11]) is > 32 µM. In addition, the IC50 in series [5] (setting [12]) is > 32 µM.
Regarding `CC1(C)CCC2=C(O1)C(=O)c1ccccc1C2=O` [α-lapachone, reference compound], in the series on HaCaT cells [1] (setting [13]), the IC50 amounted to 10 µM. In [6], the “inhibition of keratinocyte growth” value was “relatively inactive”.
In turn, `CC(=O)c1cc2c(s1)C(=O)c1ccccc1C2=O` [Compound 63b, 2-Acetyl-naphtho[2,3-b]thiophene-4,9-dione] registered a melting point of 261 to 262 °C. Further, the IC50 in the series with HaCaT cells [1] (setting [9]) worked out at 0.3 µM. Moreover, the “LDH (mU)” value with HaCaT cells [2] is on record as 134 mU. Moreover, the IC50 in [3] (setting [10]) came to 1 µM. Further, the IC50 in series [4] (setting [11]) stood at 4 µM. In series [5] (setting [12]), the IC50 is ≤ 1 µM.
Turning to `O=C(c1ccc(O)c(O)c1)c1cc2c(s1)C(=O)c1ccccc1C2=O` [Compound 65c, 2-(3,4-Dihydroxybenzoyl)-naphtho[2,3-b]thiophene-4,9-dione], the melting point is 272 to 274 °C (dec.). Besides, the “inhibition of HaCaT cell proliferation (in words)” value with HaCaT cells [1] was “inhibited cell proliferation at concentrations comparable to β-lapachone and the furan analogs”. Moreover, in the series with HaCaT cells [1] (setting [9]), the 50% inhibitory concentration (IC50) worked out at 1.5 µM. In addition, in the series with HaCaT cells [2], the “LDH release compared to vehicle control (in words)” value is given as “without significant elevation of LDH release over the vehicle control” and the “LDH (mU)” value is on record as 118 mU. Further, the IC50 in series [3] (setting [10]) came out at 11 µM. Besides, in series [4] (setting [11]), the IC50 stood at 20 µM. Moreover, the IC50 in series [5] (setting [12]) is 8 µM.
For the compound `CC1(C)CCC2=C(O1)c1ccccc1C(=O)C2=O` [β-lapachone, reference compound], in the series on HaCaT cells [1], the “inhibition of HaCaT cell proliferation (in words)” value is given as “inhibited cell proliferation”. For the same compound, the concentration for half-maximal inhibition (IC50) with HaCaT cells [1] (setting [13]) was 0.7 µM; in [3] (DLD-1, read-out: AA in Cancer Cell Lines IC50 (μM) DLD1), 4 µM; in series [4] (SW480, read-out: AA in Cancer Cell Lines IC50 (μM) SW480), 4 µM; in [5] (MCF7, read-out: AA in Cancer Cell Lines IC50 (μM) MCF7), ≤ 1 µM; in the series with human cancer cell lines it was 1 to 10 µM. Besides, the “LDH release compared to vehicle control (in words)” value in the series with HaCaT cells [2] was “significant LDH release as compared to vehicle”. Further, in the series with HaCaT cells [2], the “LDH (mU)” value was 329 mU. Moreover, in series [7], the “cytotoxic effects on normal human PBMC” value is reported as “No cytotoxic effects were observed”. Further, in [6], the “inhibition of keratinocyte growth” value is listed as “inhibition of keratinocyte growth comparable to the antipsoriatic drug anthralin”. In addition, the “induction of apoptosis in cancer versus normal cells” value in series [8] is “induces apoptosis only in cancer cell lines and not in normal cells”.
With `COc1ccc(C(=O)c2cc3cc4ccccc4cc3s2)cc1OC` [Compound 65a, (3,4-Dimethoxyphenyl)-naphtho[2,3-b]thiophen-2-yl-methanone], the melting point lay within 175 to 176 °C. Moreover, the 50% inhibitory concentration (IC50) in the series with HaCaT cells [1] (setting [9]) was > 5 µM. For the same compound, the IC50 in series [3] (setting [10]) was > 32 µM. For the same compound, the IC50 in series [4] (setting [11]) is > 32 µM. In series [5] (setting [12]), the IC50 is > 32 µM.
Compound `O=C(c1ccccc1)c1cc2cc3ccccc3cc2o1` [Compound 74a, Naphtho[2,3-b]furan-2-yl-phenylmethanone] showed a melting point of 140 to 142 °C. The concentration for half-maximal inhibition (IC50) with HaCaT cells [1] (setting [9]) worked out at 1.9 µM. In the series with HaCaT cells [2], the “LDH (mU)” value is given as 142 mU. For the same compound, in series [3] (setting [10]), the IC50 was 7.6 µM. Also, in series [4] (setting [11]), the IC50 worked out at 12 µM. For the same compound, the IC50 in [5] (setting [12]) was ≤ 1 µM.

The values are drawn from patent US20060142271A1, “Novel lapacho compounds and methods of use thereof” (priority 2002, published 2006).
